Read-outs that look alike come from different tables or passages of the source.
Columns and labels:
[1] = tested on: MT-4 cells; assay: cytotoxicity in mock-infected MT-4 cells (MTT)
Method: (§1) A rapid, sensitive and automated assay procedure was used for the in vitro evaluation of anti-HIV agents. An […] T4-cell line, MT-4, which was previously shown (Koyanagi et al., Int. J. Cancer, 36, 445-451, 1985) to be highly susceptible to and permissive for HIV infection, served as the target cell line. Inhibition of the HIV-induced cytopathic effect was used as the end point. The viability of both HIV- and mock-infected cells was assessed spectrophotometrically via the in situ reduction of 3-(4,5-dimethylthiazol-2-yl)-2,5-diphenyltetrazolium bromide (MTT). The 50% […], cytotoxic concentration (CC50 in μM) was defined as the concentration of compound that reduced the absorbance of the mock-infected control sample by 50%. The percent protection achieved by the compound in HIV-infected cells was calculated by the following formula: [formula]
(§2) whereby (ODT)HIV is the optical density measured with a given concentration of the test compound in HIV-infected cells; (ODC)HIV is the optical density measured for the control untreated HIV-infected cells; (ODC)MOCK is the optical density measured for the control untreated mock-infected cells; all optical density values were determined at 540 nm. The dose achieving 50% protection according to the above formula was defined as the 50% inhibitory concentration (IC50 in μM). The ratio of CC50 to IC50 was defined as the selectivity index (SI).

[2] = tested on: HIV-1; assay: in vitro anti-HIV assay: inhibition of HIV-induced cytopathic effect in MT-4 cells (MTT); format: cell-based; conditions: for IC50: HIV-infected MT-4 cells, dose achieving 50% protection against cytopathic effect, MTT, OD 540 nm, mean value, read-out: IC50; for SI: selectivity index = ratio of CC50 to IC50
Method: as §1, §2

[3] = Human immunodeficiency virus 1, MT4

How did the CC50 [1] turn out when `COc1cc(Cc2nc(N)nc(Nc3ccc(C#N)cc3)n2)cc(OC)c1` [Compound 53] was run?
The CC50 was > 20000 nM.

What about the IC50 [2] of the same compound?
The IC50 was 410 nM.

What about the SI [2] of the same compound?
The SI was >48.

With `CCOC(=O)Nc1nc(Cc2c(Cl)cccc2Cl)nc(Nc2ccc(C#N)cc2)n1` [Compound 37] as the compound, how does the CC50 [1] read?
Its CC50 is 85000 nM.

And the IC50 [2]?
Its IC50 is 11 nM.

What about the SI [2] of the same compound?
The SI was 7948.

Which IC50 [2, 3] does the source give for `CN(C)c1nc(Cc2c(Cl)cccc2Cl)nc(N(c2ccc(C#N)cc2)c2ccc(C#N)cc2)n1` [Compound 38, 4,4′-[[4-[(2,6-dichlorophenyl)methyl]-6-(dimethylamino)-1,3,5-triazin-2-yl]imino]bisbenzonitrile] here?
The IC50 was > 100000 nM.

What does the source list for `N#Cc1ccc(Nc2nc(Cc3c(Cl)cccc3Cl)nc(NCCCNC(N)=O)n2)cc1` [Compound 23, N-[3-[[4-[(4-cyanophenyl)amino]-6-[(2,6-dichlorophenyl)methyl]-1,3,5-triazin-2-yl]amino]propyl]urea]?
IC50 [2, 3]: 340 nM; SI [2]: 106

Which results are given for `CONc1nc(Cc2c(Cl)cccc2Cl)nc(Nc2ccc(C#N)cc2)n1` [Compound 36]?
CC50 [1]: 40900 nM; IC50 [2]: 5 nM; SI [2]: 8097

With `Cc1ccc(C)c(Cc2nc(N)nc(Nc3ccc(C#N)cc3)n2)c1` [Compound 57] as the compound, how does the CC50 [1] read?
Its CC50 is 36800 nM.

What about the IC50 [2] of the same compound?
Its IC50 is 3 nM.

What about the SI [2] of the same compound?
The SI was 11883.

`N#Cc1ccc(Nc2nc(Cc3c(Cl)cccc3Cl)nc(NCCCN)n2)cc1` [Compound 30] was tested. Which CC50 [1] did it give?
The CC50 was 16500 nM.

And the IC50 [2]?
The IC50 was 40 nM.

What about the SI [2] of the same compound?
The SI was 416.

For `Cl.N#Cc1ccc(Nc2nc(Cc3c(Cl)cccc3Cl)nc(NO)n2)cc1.O` [Compound 21, 4-[[4-[(2,6-dichlorophenyl)methyl]-6-(hydroxyamino)-1,3,5-triazin-2-yl]amino]benzonitrile monohydrochloride.monohydrate], which CC50 [1] is on record?
Its CC50 is 8900 nM.

And the IC50 [2]?
The IC50 was 2 nM.

What about the SI [2] of the same compound?
Its SI is 4924.

What does the source list for `CC(=O)Nc1nc(Cc2c(Cl)cccc2Cl)nc(Nc2ccc(C#N)cc2)n1` [Compound 22, N-[4-[(4-cyanophenyl)amino]-6-[(2,6-dichlorophenyl)methyl)-1,3,5-triazin-2-yl]-acetamide]?
IC50 [2, 3]: 14 nM; SI [2]: >6993

With `N#Cc1ccc(Nc2nc(Cc3c(Cl)cccc3Cl)nc(NCCOCCO)n2)cc1` [Compound 27] as the compound, how does the CC50 [1] read?
The CC50 was 46800 nM.

And the IC50 [2]?
Its IC50 is 56 nM.

And the SI [2]?
Its SI is 837.

How did the IC50 [2, 3] turn out when `N#Cc1ccc(Nc2nc(N)nc(Cc3c(Cl)cccc3Cl)n2)cc1` [Compound 1, 4-[[4-amino-6-[(2,6-dichlorophenyl)methyl]-1,3,5-triazin-2-yl]amino]benzonitrile] was run?
The IC50 was 2 nM.

And the SI [2]?
The SI was >42553.

What does the source list for `N#Cc1ccc(Nc2nc(Cc3c(Cl)cccc3Cl)nc(NC3CCOC3=O)n2)cc1` (stereo not shown) [Compound 32]?
CC50 [1]: 83400 nM; IC50 [2]: 2000 nM; SI [2]: 42

Which CC50 [1] does the source give for `COC(=O)CNc1nc(Cc2c(Cl)cccc2Cl)nc(Nc2ccc(C#N)cc2)n1` [Compound 13] here?
The CC50 was > 20000 nM.

What about the IC50 [2] of the same compound?
The IC50 was 110 nM.

What about the SI [2] of the same compound?
Its SI is >178.

With `COc1cccc(Cc2nc(N)nc(Nc3ccc(C#N)cc3)n2)c1OC` [Compound 50] as the compound, how does the CC50 [1] read?
The CC50 was > 20000 nM.

What about the IC50 [2] of the same compound?
The IC50 was 79 nM.

What about the SI [2] of the same compound?
The SI was >252.

Which results are given for `CCN(CC)c1nc(Cc2c(Cl)cccc2Cl)nc(Nc2ccc(C#N)cc2)n1` [Compound 12]?
CC50 [1]: > 20000 nM; IC50 [2]: 8100 nM; SI [2]: >2

Which results are given for `N#Cc1ccc(Nc2nc(N)nc(Cc3cc(F)cc(F)c3)n2)cc1` [Compound 59]?
CC50 [1]: > 100000 nM; IC50 [2]: 420 nM; SI [2]: >241

Which CC50 [1] does the source give for `N#Cc1ccc(Nc2nc(N)nc(Cc3c(F)cccc3C(F)(F)F)n2)cc1` [Compound 58] here?
The CC50 was 20000 nM.

And the IC50 [2]?
Its IC50 is 14 nM.

And the SI [2]?
Its SI is 1418.

With `N#Cc1ccc(Nc2nc(N)nc(Cc3cc(F)ccc3F)n2)cc1` [Compound 51] as the compound, how does the CC50 [1] read?
Its CC50 is > 20000 nM.

And the IC50 [2]?
The IC50 was 31 nM.

What about the SI [2] of the same compound?
Its SI is >640.

For `N#Cc1ccc(Nc2nc(N)nc(Cc3ccccc3)n2)cc1` [Compound 2], which CC50 [1] is on record?
Its CC50 is > 100000 nM.

And the IC50 [2]?
Its IC50 is 290 nM.

And the SI [2]?
The SI was >350.

`COc1ccc(C(C)=O)cc1Cc1nc(N)nc(Nc2ccc(C#N)cc2)n1` [Compound 60] was tested. Which CC50 [1] did it give?
Its CC50 is 71400 nM.

And the IC50 [2]?
The IC50 was 39 nM.

What about the SI [2] of the same compound?
Its SI is 1841.

With `N#Cc1ccc(Nc2nc(N)nc(Cc3cccc(OC(F)(F)F)c3)n2)cc1` [Compound 45] as the compound, how does the CC50 [1] read?
Its CC50 is > 100000 nM.

And the IC50 [2]?
Its IC50 is 430 nM.

What about the SI [2] of the same compound?
The SI was >233.

For `N#Cc1ccc(Nc2nc(Cc3c(Cl)cccc3Cl)nc(NCCN)n2)cc1` [Compound 19], which CC50 [1] is on record?
The CC50 was 10400 nM.

What about the IC50 [2] of the same compound?
The IC50 was 13 nM.

And the SI [2]?
Its SI is 810.

Reference: patent US20060049177A1, “Induction heating cooker” (LG Electronics Inc., priority 2004, published 2006)
